Experimental data reported in PMC7721589, “Synthesis and structure-activity relationships for tetrahydroisoquinoline-based inhibitors of Mycobacterium tuberculosis” (Bioorganic & Medicinal Chemistry, 2020).
Values after ≈ are worked out from the molar mass of the structure shown. Read-outs that look alike come from different tables or passages of the source.

Columns and labels:
M.tb strain H37Rv [1] = assay: MIC against M.tb H37Rv under aerobic (replicating; MABA) conditions; format: cell-based, Mycobacterium tuberculosis; conditions: for MIC: Mycobacterium tuberculosis; for MIC MABA: MIC90, Table 1
[2] = tested on: Vero green monkey-derived epithelial kidney cells; assay: Mammalian cytotoxicity in Vero cells; format: cell-based; conditions: for IC50: Chlorocebus sabaeus
M.tb strain H37Rv [3] = assay: MIC against M.tb H37Rv under non-replicating (LORA) conditions; conditions: for MIC LORA: MIC90, Table 1; for MIC (µg/mL) LORA: MIC90, Table 2
[4] = MIC90, Table 1, read-out: MIC MABA
[5] = MIC90, Table 2, read-out: MIC (µg/mL) MABA

Row | Molecule | MIC (M.tb strain H37Rv [1]; [4]) [µg/mL] | IC50 ([2]; Table 1) [µg/mL] | MIC LORA (M.tb strain H37Rv [3]) [µg/mL] | melting point [°C] | MIC MABA (M.tb strain H37Rv [1]) [µg/mL] | IC50 VERO ([2]; Table 1) [µg/mL] | MIC (M.tb strain H37Rv [1]; [5]) [µg/mL] | IC50 ([2]; Table 2) [µg/mL] | MIC (µg/mL) LORA (M.tb strain H37Rv [3]) [µg/mL]
1 | Cc1cc(Cl)ccc1-c1ccc(NC(=O)N2CCc3c(Cc4ccccc4)ccc(N4CCN(C)CC4)c3C2)nc1 [Compound 29, 5-Benzyl-N-(5-(4-chloro-2-methylphenyl)pyridin-2-yl)-8-(4-methylpiperazin-1-yl)-3,4-dihydroisoquinoline-2(1H)-carboxamide] | 1.8 (≈ 3.18 µM) | 11 (≈ 19.4 µM) | 1.5 (≈ 2.65 µM) | – | – | – | – | – | –
2 | COc1ccc(-c2ccc(NC(=O)N3CCc4c(OC)ccc(N5CCN(C)CC5)c4C3)nc2)cc1 [Compound 33, 5-Methoxy-N-(5-(4-methoxyphenyl)pyridin-2-yl)-8-(4-methylpiperazin-1-yl)-3,4-dihydroisoquinoline-2(1H)-carboxamide] | 7.1 (≈ 14.6 µM) | 16 (≈ 32.8 µM) | 7.4 (≈ 15.2 µM) | 207 to 209 | – | – | – | – | –
3 | COc1ccc(N2CCN(C)CC2)c2c1CCN(C(=O)c1ccc(-c3ccc(Cl)cc3C)cn1)C2 [Compound 22, (5-(4-Chloro-2-methylphenyl)pyridin-2-yl)(5-methoxy-8-(4-methylpiperazin-1-yl)-3,4-dihydroisoquinolin-2(1H)-yl)methanone] | 8.9 (≈ 18.1 µM) | 22 (≈ 44.8 µM) | 8.0 (≈ 16.3 µM) | 125 to 128 | – | – | – | – | –
4 | CN1CCN(c2cccc3c2CN(C(=O)c2ccc(-c4cccc(Cl)c4)cn2)CC3)CC1 [Compound 20, (5-(3-Chlorophenyl)pyridin-2-yl)(8-(4-methylpiperazin-1-yl)-3,4-dihydroisoquinolin-2(1H)-yl)methanone] | 15 (≈ 33.6 µM) | 24 (≈ 53.7 µM) | 11.3 (≈ 25.3 µM) | 105 to 108 | – | – | – | – | –
5 | CSc1ccc(N2CCN(C)CC2)c2c1CCN(C(=O)Nc1ccc(-c3cc(C(F)(F)F)cc(C(F)(F)F)c3)cn1)C2 [Compound 39, N-(5-(3,5-Bis(trifluoromethyl)phenyl)pyridin-2-yl)-8-(4-methylpiperazin-1-yl)-5-(methylthio)-3,4-dihydroisoquinoline-2(1H)-carboxamide] | 3.6 (≈ 5.91 µM) | 20 (≈ 32.8 µM) | 4.0 (≈ 6.56 µM) | – | – | – | – | – | –
6 | Cc1ccc(-c2ccc(NC(=O)N3CCc4c(Cc5ccccc5)ccc(N5CCN(C)CC5)c4C3)nc2)c(C)c1 [Compound 30, 5-Benzyl-N-(5-(2,4-dimethylphenyl)pyridin-2-yl)-8-(4-methylpiperazin-1-yl)-3,4-dihydroisoquinoline-2(1H)-carboxamide] | 2 (≈ 3.66 µM) | 11 (≈ 20.2 µM) | 1.9 (≈ 3.48 µM) | 94 to 97 | – | – | – | – | –
7 | COc1ccc(-c2ccc(NC(=O)N3CCc4c(OC)ccc(N5CCN(C)CC5)c4C3)nc2)cn1 [Compound 32, 5-Methoxy-N-(6′-methoxy-[3,3′-bipyridin]-6-yl)-8-(4-methylpiperazin-1-yl)-3,4-dihydroisoquinoline-2(1H)-carboxamide] | 15.5 (≈ 31.7 µM) | 14 (≈ 28.7 µM) | 20 (≈ 40.9 µM) | 93 to 96 | – | – | – | – | –
8 | CCc1ccc(N2CCN(C)CC2)c2c1CCN(C(=O)Nc1ccc(-c3ccc(Cl)cc3C)cn1)C2 [Compound 28, N-(5-(4-Chloro-2-methylphenyl)pyridin-2-yl)-5-ethyl-8-(4-methylpiperazin-1-yl)-3,4-dihydroisoquinoline-2(1H)-carboxamide] | 2.9 (≈ 5.75 µM) | 12 (≈ 23.8 µM) | 1.8 (≈ 3.57 µM) | 180 to 182 | – | – | – | – | –
9 | CN1CCN(c2ccc(F)c3c2CN(Cc2ccc(-c4ccc(Cl)cc4C(F)(F)F)cn2)CC3)CC1 [Compound 17, 2-((5-(4-Chloro-2-(trifluoromethyl)phenyl)pyridin-2-yl)methyl)-5-fluoro-8-(4-methylpiperazin-1-yl)-1,2,3,4-tetrahydroisoquinoline] | 2.3 (≈ 4.43 µM) | 11 (≈ 21.2 µM) | 5.4 (≈ 10.4 µM) | 102 to 104 | – | – | – | – | –
10 | CN1CCN(c2cccc3c2CN(C(=O)Cc2ccc(-c4cccc(Cl)c4)cn2)CC3)CC1 [Compound 45, 2-(5-(3-Chlorophenyl)pyridin-2-yl)-1-(8-(4-methylpiperazin-1-yl)-3,4-dihydroisoquinolin-2(1H)-yl)ethan-1-one] | 15 (≈ 32.5 µM) | 25 (≈ 54.2 µM) | 21.7 (≈ 47.1 µM) | – | – | – | – | – | –
11 | CSc1ccc(N2CCN(C)CC2)c2c1CCN(Cc1ccc(-c3ccc(Cl)cc3C)cn1)C2 [Compound 14, 2-((5-(4-Chloro-2-methylphenyl)pyridin-2-yl)methyl)-8-(4-methylpiperazin-1-yl)-5-(methylthio)-1,2,3,4-tetrahydroisoquinoline] | 3.4 (≈ 6.89 µM) | 11 (≈ 22.3 µM) | 6.0 (≈ 12.2 µM) | 65 to 68 | – | – | – | – | –
12 | COc1ccc(N2CCN(C)CC2)c2c1CCN(C(=O)N1CCC(Oc3ccc(OC(F)(F)F)cc3)CC1)C2 [Compound 50, (5-Methoxy-8-(4-methylpiperazin-1-yl)-3,4-dihydroisoquinolin-2(1H)-yl)(4-(4-(trifluoromethoxy)phenoxy)piperidin-1-yl)methanone] | 7.6 (≈ 13.9 µM) | 15 (≈ 27.3 µM) | 7.0 (≈ 12.8 µM) | 49 to 51 | – | – | – | – | –
13 | Cc1cc(Cl)ccc1-c1ccc(NC(=O)N2CCc3cccc(N4CCN(C)CC4)c3C2)nc1 [Compound 24, N-(5-(4-Chloro-2-methylphenyl)pyridin-2-yl)-8-(4-methylpiperazin-1-yl)-3,4-dihydroisoquinoline-2(1H)-carboxamide] | 6.2 (≈ 13 µM) | 11 (≈ 23.1 µM) | 7.7 (≈ 16.2 µM) | – | – | – | – | – | –
14 | Cc1ccc(N2CCN(C)CC2)c2c1CCN(C(=O)Nc1ccc(-c3ccc(Cl)cc3Cl)cn1)C2 [Compound 25, N-(5-(2,4-Dichlorophenyl)pyridin-2-yl)-5-methyl-8-(4-methylpiperazin-1-yl)-3,4-dihydroisoquinoline-2(1H)-carboxamide] | 1.95 (≈ 3.82 µM) | 12 (≈ 23.5 µM) | 1.99 (≈ 3.9 µM) | – | – | – | – | – | –
15 | COc1ccc(N2CCN(C)CC2)c2c1CCN(C(=O)c1ccc(-c3ccc(Cl)cc3)cn1)C2 [Compound 21, (5-(4-Chlorophenyl)pyridin-2-yl)(5-methoxy-8-(4-methylpiperazin-1-yl)-3,4-dihydroisoquinolin-2(1H)-yl)methanone] | 13 (≈ 27.3 µM) | 11 (≈ 23.1 µM) | 12 (≈ 25.2 µM) | 124 to 127 | – | – | – | – | –
16 | COc1ccc(N2CCN(C)CC2)c2c1CCN(C(=O)Nc1ccc(-c3cc(C(F)(F)F)cc(C(F)(F)F)c3)cn1)C2 [Compound 38, N-(5-(3,5-Bis(trifluoromethyl)phenyl)pyridin-2-yl)-5-methoxy-8-(4-methylpiperazin-1-yl)-3,4-dihydroisoquinoline-2(1H)-carboxamide] | 1.3 (≈ 2.19 µM) | 10 (≈ 16.8 µM) | – | 106 to 109 | – | – | – | – | –
17 | CN1CCN(c2ccc(F)c3c2CN(Cc2ccc(-c4ccc(F)cc4F)cn2)CC3)CC1 [Compound 16, 2-((5-(2,4-Difluorophenyl)pyridin-2-yl)methyl)-5-fluoro-8-(4-methylpiperazin-1-yl)-1,2,3,4-tetrahydroisoquinoline] | 15 (≈ 33.1 µM) | 22 (≈ 48.6 µM) | 21 (≈ 46.4 µM) | – | – | – | – | – | –
18 | 2-((5-(4-Chlorophenyl)pyridin-2-yl)methyl)-8-(4-methoxypiperazin-1-yl)-5-methyl-1,2,3,4-tetrahydroisoquinoline [Compound 13] | – | – | 6.1 | – | 1.8 | 12 | – | – | –
19 | CN1CCN(c2cccc3c2CN(C(=O)Cc2ccc(-c4ccccc4)cn2)CC3)CC1 [Compound 44, 1-(8-(4-Methylpiperazin-1-yl)-3,4-dihydroisoquinolin-2(1H)-yl)-2-(5-phenylpyridin-2-yl)ethan-1-one] | > 32 | > 32 | >32 | – | – | – | – | – | –
20 | Cc1cc(Cl)ccc1-c1ccc(CN2CCc3c(C)ccc(N4CCOCC4)c3C2)nc1 [Compound 53, 4-(2-((5-(4-Chloro-2-methylphenyl)pyridin-2-yl)methyl)-5-methyl-1,2,3,4-tetrahydroisoquinolin-8-yl)morpholine] | – | – | – | – | – | – | 7.8 (≈ 17.4 µM) | > 32 | 12 (≈ 26.8 µM)
21 | Cc1cc(Cl)ccc1-c1ccc(CN2CCc3c(C)ccc(N4CCNCC4)c3C2)nc1 [Compound 52, 2-((5-(4-Chloro-2-methylphenyl)pyridin-2-yl)methyl)-5-methyl-8-(piperazin-1-yl)-1,2,3,4-tetrahydroisoquinoline] | – | – | – | – | – | – | 1.8 (≈ 4.03 µM) | 12 (≈ 26.8 µM) | 4.4 (≈ 9.84 µM)
22 | Cc1cc(Cl)ccc1-c1ccc(CN2CCc3c(C)ccc(N4CCCCC4)c3C2)nc1 [Compound 55, 2-((5-(4-Chloro-2-methylphenyl)pyridin-2-yl)methyl)-5-methyl-8-(piperidin-1-yl)-1,2,3,4-tetrahydroisoquinoline] | – | – | – | 96 to 98 | – | – | 2.6 (≈ 5.83 µM) | > 32 | –
23 | Cc1cc(Cl)ccc1-c1ccc(CN2CCc3c(F)ccc(N4CCN(C)CC4)c3C2)nc1 [Compound 15, 2-((5-(4-Chloro-2-methylphenyl)pyridin-2-yl)methyl)-8-(4-methylpiperazin-1-yl)-5-fluoro-1,2,3,4-tetrahydroisoquinoline] | 3.8 (≈ 8.17 µM) | 24 (≈ 51.6 µM) | 6.1 (≈ 13.1 µM) | – | – | – | – | – | –
24 | CN1CCN(c2cccc3c2CN(C(=O)Cc2ccc(-c4ccc(OC(F)(F)F)cc4)cn2)CC3)CC1 [Compound 46, 1-(8-(4-Methylpiperazin-1-yl)-3,4-dihydroisoquinolin-2(1H)-yl)-2-(5-(4-(trifluoromethoxy)phenyl)pyridin-2-yl)ethan-1-one] | 13.7 (≈ 26.8 µM) | 20 (≈ 39.2 µM) | 12.4 (≈ 24.3 µM) | – | – | – | – | – | –
25 | 2-((5-(2,4-Dichlorophenyl)pyridin-2-yl)methyl)-8-(4-methylpiperazin-1-yl)-1,2,3,4-tetrahydroisoquinoline [Compound 11] | – | – | 11 | – | 3.6 | – | – | – | –
26 | CN1CCN(c2ccc(F)c3c2CN(C(=O)Nc2ccc(-c4ccc(Cl)c(C(F)(F)F)c4)cn2)CC3)CC1 [Compound 41, N-(5-(4-Chloro-3-(trifluoromethyl)phenyl)pyridin-2-yl)-5-fluoro-8-(4-methylpiperazin-1-yl)-3,4-dihydroisoquinoline-2(1H)-carboxamide] | 1.4 (≈ 2.55 µM) | 10 (≈ 18.2 µM) | 2.9 (≈ 5.29 µM) | – | – | – | – | – | –
